Measured values from US20210346321A1, “PHARMACEUTICAL COMPOSITION CONTAINING ALKYL CARBAMOYL NAPHTHALENYLOXY OCTENOYL HYDROXYAMIDE PHOSPHATE, TARTRATE OR COMBINATION THEREOF, AND PREPARATION METHOD THEREFOR” (CRYSTALGENOMICS, INC., priority 2018, published 2021).
Entries after “also recorded” stand apart in the source; their conditions may differ.

Assays:
Assay type in all cases: physicochemical
[1] = Evaluation of change in moisture content (Karl Fischer); details: open state, room temperature (20 to 25° C., 50% or less), after 3 days versus initial
Source text: (§1) In order to evaluate the stability of the compound according to the present invention, an alkylcarbamoyl naphthalenyloxy octenoyl hydroxyamide compound was used in Comparative Example 1, an alkyl carbamoyl naphthalenyloxy octenoyl hydroxyamide tartrate was used in Example 13 and alkylcarbamoyl naphthalenyloxy octenoyl hydroxyamide phosphate was used in Example 14. As alkylcarbamoyl naphthalenyloxy octenoyl hydroxyamide, (E)-N1-(3-(dimethylamino)propyl)-N8-hydroxy-2-((naphthalen-1-yloxy)methyl)-2-octenediamide compound was used. Evaluation of stability was conducted by observing the change with storage time under room temperature (20-25° C., 50% or less), long-term (25±2° C. and 60±5% RH), accelerated (40±2° C. and 75±5% RH) and severe (60±2° C.) conditions.
In order to evaluate the change in moisture content, the compounds according to Examples and Comparative Examples were stored in an open state at room temperature (20 to 25° C., 50% or less), and the change was measured by the difference between the initial moisture content and the moisture content after 3 days, and the results are shown in FIG. 4. Moisture content was measured according to the volumetric titration method among methods of determining the water content (Karl Fischer method) of the general test methods of the Korean Pharmacopoeia (measurement equipment: 701KF_Metrohm).

[2] = Evaluation of change in appearance on storage; details: for change in appearance: open state storage, all conditions
Source text: as §1
In order to evaluate the change in appearance of the compounds according to Comparative Examples and Examples, each compound was stored in an open state according to the conditions shown in Table 13 below, and then the change in appearance was observed.

[3] = Evaluation of change in content on storage (HPLC)
Source text: as §1
In order to evaluate the change in the content of the compounds according to Examples, each compound was stored in an open state or in a polyethylene bottle packaging (silica gel added) to measure the change in content. For measurement of content, compounds of Comparative Examples and Examples were pretreated and then the solutions were tested according to the liquid chromatography method of the general test methods of the Korean Pharmacopoeia to determine the peak area of CG200745 (measurement equipment: HPLC LC-2030C_Shimadzu). The content standard is to contain CG200745 in an amount corresponding to 95.0-105.5% of the indicated amount according to the standards and test methods of the present applicant.
The results measured in the open state are shown in Table 14 below, and the results measured in the bottle packaging are shown in Table 15 below.

[4] = Comparison of the amount of change in related substances of the compounds; details: for increase in the amount of related substances: open state at room temperature for 3 days
Experimental: In order to evaluate the amount of change in the related substances of Example 12, the composition of Example 12 was placed in an accelerated condition chamber ([…], 75%±5), and the amount of related substance produced was measured for 6 months. For the measurement of the amount of related substances produced, the composition of Example 12 was pretreated and then tested according to the liquid chromatography method of the general test method of the Korean Pharmacopoeia to determine peak areas of the produced related substances (individual related substance 0.2% or less, total related substances 1.0%, measuring equipment: HPLC LC-2030C_Shimadzu). In Table 12, the amount of related substances produced is expressed in %. In addition, FIG. 3 is a result of measuring the related substance at 28 minutes under the accelerated condition, and the reference value is 0.2%.
In order to evaluate the amount of change in related substances of the compounds according to Comparative Examples and Examples, each compound was stored in an open state at room temperature for 3 days, and then the amount of related substances produced was measured in the same manner as in Experimental Example 3 and the results are shown in FIG. 5.
In addition, changes in the amount of related substances produced according to temperature and storage period are shown in FIGS. 6 and 7 for the compounds according to Examples 13 and 14.

[5] = open state, 1 day, Accelerated (40±2° C., 75±5% RH)
[6] = open state, 1 day, Long-term (25±2° C., 60±5% RH)
[7] = bottle packaging, 1 day, Accelerated
[8] = bottle packaging, 1 day, Long-term
[9] = bottle packaging, 1 day, Room temperature
[10] = bottle packaging, 1 day, Severe
[11] = bottle packaging, 3 days, Accelerated
[12] = bottle packaging, 3 days, Long-term
[13] = bottle packaging, 3 days, Room temperature
[14] = bottle packaging, 7 days, Accelerated
[15] = bottle packaging, 7 days, Long-term
[16] = bottle packaging, 7 days, Room temperature
[17] = polyethylene bottle packaging (silica gel added), Initial
[18] = open state, 7 days, Room temperature (20-25° C., 50% or less)

In the case of CN(C)CCCNC(=O)/C(=C/CCCCC(=O)NO)COc1cccc2ccccc12 [Comparative Example 1, (E)-N1-(3-(dimethylamino)propyl)-N8-hydroxy-2-((naphthalen-1-yloxy)methyl)-2-octenediamide, reference compound], the “increase in moisture content” value [1] is reported as “about 3%”, the appearance ([2]; Initial, listed as Comp. Ex. 1) is reported as “Foam” and the “change in appearance” value [2] is reported as “changed from a foam to a highly viscous liquid or gel”. For the same molecule, the appearance [2, 5] was “Gel-like”, the appearance [2, 6] was “Gel-like” and the appearance ([2]; open state, 1 day, Room temperature (20-25° C., 50% or less), listed as Comp. Ex. 1) was “Gel-like”. The appearance ([2]; open state, 1 day, Severe (60±2° C.), listed as Comp. Ex. 1) was “Gel-like”, the “content of CG200745” value [3, 7] was 89.1% and the “content of CG200745” value [3, 8] was 99.1%. For the same molecule, the “content of CG200745” value [3, 9] was 99.3%, the “content of CG200745” value [3, 10] was 101.2% and the “content of CG200745” value [3, 11] was 84.0%. For the same molecule, the “content of CG200745” value [3, 12] was 84.0%, the “content of CG200745” value [3, 13] was 99.5% and the “content of CG200745” value [3, 14] was 78.5%. The “content of CG200745” value [3, 15] was 78.5%, the “content of CG200745” value [3, 16] was 99.4% and the “content of CG200745” value ([3]; open state, 1 day, Accelerated, listed as Comp. Ex. 1) was 92.3%. The “content of CG200745” value ([3]; open state, 1 day, Long-term, listed as Comp. Ex. 1) was 99.9%, the “content of CG200745” value ([3]; open state, 1 day, Room temperature, listed as Comp. Ex. 1) was 101.0% and the “content of CG200745” value ([3]; open state, 1 day, Severe, listed as Comp. Ex. 1) was 101.1%. For the same molecule, the “content of CG200745” value ([3]; open state, 3 days, Room temperature, listed as Comp. Ex. 1) was 101.9%, the “content of CG200745” value ([3]; open state, 3 days, Severe, listed as Comp. Ex. 1) was 97.2% and the “content of CG200745” value ([3]; open state, 7 days, Room temperature, listed as Comp. Ex. 1) was 100.1%. For the same molecule, the “content of CG200745” value ([3]; open state, 7 days, Severe, listed as Comp. Ex. 1) was 89.1%, the “content of CG200745” value ([3]; open state, Initial, listed as Comp. Ex. 1) was 98.9% and the “content of CG200745” value [3, 17] was 98.9%. The “increase in the amount of related substances” value (from here on “increase in the amount”) [4] was “about 10%”.
With CN(C)CCCNC(=O)/C(=C/CCCCC(=O)NO)COc1cccc2ccccc12 [Example 13, (E)-N1-(3-(dimethylamino)propyl)-N8-hydroxy-2-((naphthalen-1-yloxy)methyl)-2-octenediamide] the “increase in moisture content” value [1] was 2%, the appearance ([2]; Initial, listed as Ex. 13) was “Powder” and the appearance [2, 5] was “Gel-like”. The appearance [2, 6] was “Gel-like”, the appearance ([2]; open state, 1 day, Room temperature (20-25° C., 50% or less), listed as Ex. 13) was “Powder” and the appearance ([2]; open state, 1 day, Severe (60±2° C.), listed as Ex. 13) was “Powder”. For the same molecule, the appearance [2, 18] was “Powder”, the appearance ([2]; open state, 7 days, Severe (60±2° C.), listed as Ex. 13) was “Powder; also recorded: Discoloration” and the “content of CG200745” value ([3]; open state, 1 day, Accelerated, listed as Ex. 13) was 104.6%. For the same molecule, the “content of CG200745” value ([3]; open state, 1 day, Long-term, listed as Ex. 13) was 104.3%, the “content of CG200745” value ([3]; open state, 1 day, Room temperature, listed as Ex. 13) was 103.4% and the “content of CG200745” value ([3]; open state, 1 day, Severe, listed as Ex. 13) was 103.3%. The “content of CG200745” value ([3]; open state, 3 days, Accelerated) was 102.3%, the “content of CG200745” value ([3]; open state, 3 days, Long-term) was 102.6% and the “content of CG200745” value ([3]; open state, 3 days, Room temperature, listed as Ex. 13) was 102.6%. For the same molecule, the “content of CG200745” value ([3]; open state, 3 days, Severe, listed as Ex. 13) was 99.6%, the “content of CG200745” value ([3]; open state, 7 days, Accelerated) was 100.7% and the “content of CG200745” value ([3]; open state, 7 days, Long-term) was 99.4%. The “content of CG200745” value ([3]; open state, 7 days, Room temperature, listed as Ex. 13) was 100.0%, the “content of CG200745” value ([3]; open state, 7 days, Severe, listed as Ex. 13) was 102.2% and the “content of CG200745” value ([3]; open state, Initial, listed as Ex. 13) was 99.5%. The “content on storage” value ([3]; under the room temperature condition) was “maintained at a certain level”, the “amount of related substances produced according to storage temperature” value ([4]; FIG. 6) was “maintained within a certain range at a relatively low temperature” and the “increase in the amount” value [4] was 0.05%.
With CN(C)CCCNC(=O)/C(=C/CCCCC(=O)NO)COc1cccc2ccccc12.O=P(O)(O)O [Example 14, (E)-N1-(3-(dimethylamino)propyl)-N8-hydroxy-2-((naphthalen-1-yloxy)methyl)-2-octenediamide phosphate] the “increase in moisture content” value [1] was “about 0.01%”, the appearance ([2]; Initial) was “Powder” and the “change in appearance” value [2] was “remained constant regardless of the condition”. For the same molecule, the appearance [2, 5] was “Powder”, the appearance [2, 6] was “Powder” and the appearance ([2]; open state, 1 day, Room temperature (20-25° C., 50% or less)) was “Powder”. For the same molecule, the appearance ([2]; open state, 1 day, Severe (60±2° C.)) was “Powder”, the appearance ([2]; open state, 7 days, Accelerated (40±2° C., 75±5% RH)) was “Powder” and the appearance ([2]; open state, 7 days, Long-term (25±2° C., 60±5% RH)) was “Powder”. For the same molecule, the appearance [2, 18] was “Powder”, the appearance ([2]; open state, 7 days, Severe (60±2° C.)) was “Powder” and the “content on storage” value ([3]; all packaging conditions, heating, humidity) was “kept constant regardless of packaging conditions, heating, and humidity”. The “content of CG200745” value [3, 7] was 101.2%, the “content of CG200745” value [3, 8] was 103.5% and the “content of CG200745” value [3, 9] was 98.6%. The “content of CG200745” value [3, 10] was 101.6%, the “content of CG200745” value [3, 11] was 100.1% and the “content of CG200745” value [3, 12] was 99.9%. The “content of CG200745” value [3, 13] was 98.8%, the “content of CG200745” value ([3]; bottle packaging, 3 days, Severe) was 100.4% and the “content of CG200745” value [3, 14] was 101.1%. The “content of CG200745” value [3, 15] was 100.9%, the “content of CG200745” value [3, 16] was 99.3% and the “content of CG200745” value ([3]; bottle packaging, 7 days, Severe) was 101.4%. For the same molecule, the “content of CG200745” value [3, 17] was 99.5%, the “increase in the amount” value [4] was 0.02% and the “amount of related substances produced” value ([4]; regardless of the storage temperature and period (FIG. 7)) was “about 0.22%”.
